{"source": "patent US6599943B1", "about": "“Use of hydroxyguanidines” (WaPharm AB, priority 1996, dated 2003)", "assay_type_in_all_cases": "biochemical", "key": {"rat heart cytosol": {"tested_on": "rat heart cytosol", "experiment": "Hydroxyguanidine reducing activity of heart cytosol by radioligand binding assay", "conditions": "70 μM guanoxabenz, 1 hr at 25° C.", "protocol": "Assay of hydroxyguanidine reducing activity by radioligand binding. The assay is based on the possibility to measure the affinity of ligands to α2-adrenoceptors by using radioligand binding. In a typical experiment small aliquots of the sample to be measured is added to an assay containing membranes rich in α2-adrenoceptors as well as a suitable concentration of a radioligand capable of binding to α2-adrenoceptors. After the assay mixture has been incubated for a suitable time, to achieve equilibrium, the amount of radioligand bound to the membranes is measured by washing and filtering on GF/C glass fibre filters using methods that are well described in literature, and which are commonly referred to as radioligand binding. The ability of the hydroxyguanidine and its product to inhibit the binding of the radioligand to the α2-adrenoceptor constituted a measure of the hydroxyguanidine/guanidine activity of the reaction mixture. A preferred hydroxyguanidine is one which corresponding guanidine show substantially different affinity compared to the hydroxyguanidine itself. A most preferred example of such a hydroxyguanidine is guanoxabenz.\nIn a more more exact version of the assay the “apparent affinity” of the mixture of hydroxyguanidine and guanidine-product is measured by constructing a complete competition curve for each sample to be measured. This is achieved by adding different dilutions of the reaction mixture to the radioligand binding assay. Since the sum of the concentration of the hydroxyguanidine and the guanidine product is known, the “apparent affinity” of the mixture can be calculated from the radioligand binding data using standard procedures for radioligand binding data analysis (Uhlén and Wikberg,1991). For the purpose of the present studies the apparent affinity of the reaction mixture was estimated from competition data by using a radioligand binding analysis computer software package (Wan System AB, Trillvägen 13, S-905 92 Umeå, Sweden). The fraction (q) of guanidine product obtained is then given by: [formula] […]"}, "xanthine oxidase": {"target": "xanthine oxidase (Bos taurus, UniProt P80457)", "sequence (P80457 whole entry)": "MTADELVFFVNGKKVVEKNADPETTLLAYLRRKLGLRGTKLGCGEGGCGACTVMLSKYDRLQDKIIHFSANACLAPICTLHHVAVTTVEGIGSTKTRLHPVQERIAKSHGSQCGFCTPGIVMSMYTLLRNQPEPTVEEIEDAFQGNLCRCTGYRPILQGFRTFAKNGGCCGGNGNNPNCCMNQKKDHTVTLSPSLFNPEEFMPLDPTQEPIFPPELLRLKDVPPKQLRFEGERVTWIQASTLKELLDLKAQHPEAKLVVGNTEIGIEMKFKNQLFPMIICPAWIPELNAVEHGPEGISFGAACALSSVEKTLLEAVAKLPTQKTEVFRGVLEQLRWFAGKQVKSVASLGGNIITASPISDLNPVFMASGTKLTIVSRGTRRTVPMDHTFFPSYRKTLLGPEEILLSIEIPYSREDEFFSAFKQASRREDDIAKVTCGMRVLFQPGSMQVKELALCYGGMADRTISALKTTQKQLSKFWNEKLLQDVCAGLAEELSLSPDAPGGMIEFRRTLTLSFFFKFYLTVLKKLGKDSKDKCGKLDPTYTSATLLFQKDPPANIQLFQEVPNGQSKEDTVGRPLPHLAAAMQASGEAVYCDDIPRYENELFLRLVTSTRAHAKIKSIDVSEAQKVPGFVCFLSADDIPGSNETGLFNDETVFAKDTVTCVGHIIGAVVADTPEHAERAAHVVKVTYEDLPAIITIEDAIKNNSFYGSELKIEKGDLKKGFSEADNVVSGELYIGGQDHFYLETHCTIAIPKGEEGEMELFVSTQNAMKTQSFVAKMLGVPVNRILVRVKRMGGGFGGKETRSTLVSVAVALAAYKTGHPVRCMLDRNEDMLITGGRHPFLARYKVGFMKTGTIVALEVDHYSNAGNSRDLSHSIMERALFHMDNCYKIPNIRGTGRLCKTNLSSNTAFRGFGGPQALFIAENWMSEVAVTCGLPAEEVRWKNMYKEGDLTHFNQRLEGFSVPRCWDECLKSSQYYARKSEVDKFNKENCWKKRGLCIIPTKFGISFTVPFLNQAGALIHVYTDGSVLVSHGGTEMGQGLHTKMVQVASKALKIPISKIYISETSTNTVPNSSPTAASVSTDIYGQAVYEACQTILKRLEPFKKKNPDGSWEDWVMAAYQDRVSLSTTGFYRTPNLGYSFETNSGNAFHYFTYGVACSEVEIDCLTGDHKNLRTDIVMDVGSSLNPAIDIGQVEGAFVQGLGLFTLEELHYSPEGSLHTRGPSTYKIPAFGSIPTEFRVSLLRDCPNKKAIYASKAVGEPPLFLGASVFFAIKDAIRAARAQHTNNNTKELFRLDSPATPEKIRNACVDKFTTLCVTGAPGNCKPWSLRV", "experiment": "Inhibition of superoxide radical formation by xanthine oxidase, EPR with DMPO", "conditions": "100 μM guanoxabenz, 100 μM xanthine, 0.04 units/ml xanthine oxidase, 50 μM DMPO", "protocol": "Capacity of hydroxyguanidines to inhibit the formation of superoxide radicals by xanthine oxidase in the presence of oxygen. The detection of the spin adducts of superoxide formed by xanthine oxidase and xanthine reaction was performed by using a Bruker ER200D-SRC EPR spectrometer equipped with an ER4105ST double cavity and the spin trap agent DMPO, by essentially using the approach described by Britigan et al. (1990). In brief, reaction mixtures of total volumes of 0.5 ml were prepared by adding to a plastic tubes, in the listed order, reagents that gave final concentrations as follows: 50 mM Tris HCl, 1.5 mM EDTA, 100 μM xanthine, 100 μM guanoxabenz, 0.04 units/ml xanthine oxidase and 50 μM DMPO, pH 7.5. As a control served an identical reaction mixture except that guanoxabenz had been omitted. The solutions were immediately transferred to standard flat cells for aqueous samples and spectra were recorded at room temperature. Spectrometer settings were as follows: microwave power 3.99 mW; modulation amplitude 1.028 G; time constant 10.24 ms; modulation frequency 100 kHz; receiver gain, 5×10^4. In FIG. 6 is shown an exemplary recording from these tests. […] This additional signal was due to a contaminant corresponding to “nitric oxide” that was released from the disposable laboratory plastic used in the preparation of the samples (see Buettner et al., 1991)."}, "[1]": {"target": "bovine milk xanthine oxidase (Bos taurus, UniProt P80457)", "sequence (P80457 whole entry)": "as above", "experiment": "Capacity to sustain oxidation of xanthine by xanthine oxidase in the absence of oxygen, spectrophotometric", "parameters": "host or cells: bovine milk", "conditions": "50 μM hydroxyguanidine, 50 μM xanthine, 0.05 units/ml xanthine oxidase, anaerobic, pH 7.5, 20° C., blank subtracted", "protocol": "Capacities of a series of hydroxyguanidine to sustain the oxidation of xanthine by xanthine oxidase in the absence of oxygen. The capacities of various hydroxyguanidines to sustain the oxidation of xanthine was assayed by using a spectrophotometric method. In this method bovine milk xanthine oxidase was injected to a Helma® sealable cuvette for anaerobic application thereby creating 1 ml of a reaction mixture that contained reagents as follows: 50 μM of a hydroxyguanidine, 50 μM xanthine, 0.05 units/ml bovine milk xanthine oxidase, 50 mM Tris and 1.5 mM EDTA; the pH of the reaction mixture being 7.5, and the temperature 20° C. Anaerobic conditions were assured by pre-gassing all solutions used for 5-10 min, with nitrogen. The rate of formation of uric acid was monitored spectrophotometrically by measuring the increase in absorbance at 295 nm (the absorption maximum for uric acid) at intervals. The relative capacities of the hydroxyguanidines to sustain oxidation of xanthine were estimated from the derivative of the initial linear phase of the curves. To obtain blank readings an equal volume of the solvent of the hydroxyguanidine (water) was added to the reaction mixture in separate experiments and the initial rate of absorbance change was substracted from the rate readings of the tested hydroxyguanidine.\nExemplary initial rates for the rate of the support of the oxidation of xanthine obtained by assaying the exemplary hydroxyguanidines listed above by the method in the present example are furthermore given in Table 2: […]"}}}
{"compound": "N=C(NO)NN=Cc1c(Cl)cccc1Cl", "note": "[Guanoxabenz, 2(2,6-dichlorophenyl)methylene-N-hydroxyhydrazine carboxi-imidamide]", "values": [{"measurement": "concentration of guanabenz in the sample", "setting": "rat heart cytosol", "result": 6.3, "unit": "µM"}, {"measurement": "conversion of guanoxabenz to guanabenz", "setting": "rat heart cytosol", "result": 9, "unit": "%"}, {"measurement": "q (fraction of guanidine product)", "setting": "rat heart cytosol", "result": 0.09}, {"measurement": "reduction of the superoxide signal (EPR)", "setting": "xanthine oxidase", "result": "about 60%"}, {"measurement": "V = 1000 × (Δabs 295 nm) min^−1 (initial rate of the support of the oxidation of xanthine)", "setting": "[1]", "result": "40 1000 × (Δabs 295 nm) min^−1"}]}
